From US9540427B2, “Peptide-based stat inhibitor” (The United States of America, as represented by the …, priority 2007, dated 2017)
Square brackets hold non-standard residues; d marks the D form. Ends that are not written are not given here. Peptide text beside a SMILES is read from it. * marks the point of attachment. Phe(4-CN) = N#Cc1ccc(C[C@H](N)C(=O)O)cc1; Palmitoyl = CCCCCCCCCCCCCCCC(=O)*; rhodamine = not defined here; Nle = CCCC[C@H](N)C(=O)O; Dab = NCC[C@H](N)C(=O)O

Legend:
STAT3 signaling = assay: Luciferase reporter assay (Mercury JAK-STAT Pathway Profiling system, GAS or STAT3 elements) in MCF-7 cells; type: cell-based, human; set-up: concentration or dose not given beside the values; conditions: luciferase reporter with GAS or STAT3 elements, basal expression, within one hour after treatment
Procedure: Selected peptides were tested for inhibition of STAT3 signaling in breast cancer cell lines by luciferase reporter assay. The assay employed the Mercury JAK-STAT Pathway Profiling system (Clontech), which includes the enhancer elements GAS (interferon-γ activating sequence) or STAT3 (a modified GAS sequence) introduced as three tandem copies upstream of the TA promoter in a luciferase reporter vector. STAT3 helix 2 analogs reduced basal expression of the reporter construct containing the GAS, or STAT3 elements in MCF-7 cells within one hour after treatment.

MCF7 breast cancer cells = assay: MTT assay of growth inhibition / cytotoxicity in MCF7 cells; type: cell-based, human; conditions: for Cell growth, % of control: 5 μM, MTT assay 48 hours after exposure
Procedure: Activity was determined by MTT assay 48 hours after exposure of the MCF7 cells to the test compounds.
Peptides were constructed based on variations of the amino acid sequence of the second helix of STAT1 and STAT5a. ε-palmitoyl lysine was substituted for penetratin as a cell-penetrating motif Several residues of penetratin sequence were preserved in the lipopeptide derivatives, which served as a linking sequence. The peptides and peptidomimetics were tested for growth inhibitory and cytotoxic activity in MCF7 cells using an MTT assay as described in Example 2.
Retro-inverso peptide analogues were prepared comprising variants of the sequence of helix 2 of STAT3. STAT3-Hel2A-2 (see Example 3) was used as a starting sequence, in which all but three residues of the original penetratin sequence was replaced with palmitic acid. The variants were produced by systematically truncating and substituting the base sequence. The compounds were used to treat MCF7 breast cancer cells. IC50 values were determined 48 hours after exposing the cells to the test compounds.

STAT3 = target: T1, STAT3 (Homo sapiens, UniProt P40763); assay: STAT3 tyrosine phosphorylation and expression in cytokine-treated breast cancer cells; type: cell-based; conditions: pretreatment 1 hour
T1 construct: endogenous in cells; host or cells: MCF-7 and MDA-MB-231
T1 sequence (P40763 whole entry): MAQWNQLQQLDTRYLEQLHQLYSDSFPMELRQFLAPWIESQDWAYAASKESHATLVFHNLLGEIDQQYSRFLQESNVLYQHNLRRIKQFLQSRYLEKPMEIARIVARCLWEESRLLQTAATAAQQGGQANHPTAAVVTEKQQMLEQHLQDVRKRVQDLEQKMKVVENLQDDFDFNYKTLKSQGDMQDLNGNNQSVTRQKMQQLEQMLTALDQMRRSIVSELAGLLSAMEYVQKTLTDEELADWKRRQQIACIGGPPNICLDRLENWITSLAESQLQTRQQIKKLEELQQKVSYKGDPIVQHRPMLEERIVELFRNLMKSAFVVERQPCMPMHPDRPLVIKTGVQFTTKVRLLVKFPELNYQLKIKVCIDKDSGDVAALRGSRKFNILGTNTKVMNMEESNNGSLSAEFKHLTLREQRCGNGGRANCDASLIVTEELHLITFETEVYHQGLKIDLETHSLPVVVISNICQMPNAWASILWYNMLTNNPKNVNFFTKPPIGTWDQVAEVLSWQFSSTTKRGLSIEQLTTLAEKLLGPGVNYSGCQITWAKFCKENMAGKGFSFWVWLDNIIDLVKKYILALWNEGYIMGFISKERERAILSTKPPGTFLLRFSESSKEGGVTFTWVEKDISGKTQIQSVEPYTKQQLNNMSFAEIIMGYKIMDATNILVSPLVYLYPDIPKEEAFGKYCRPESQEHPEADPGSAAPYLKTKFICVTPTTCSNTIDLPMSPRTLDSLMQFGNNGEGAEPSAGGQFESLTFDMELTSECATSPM
Procedure: (§1) MCF-7 and MDA-MB-231 cells were treated with Leukemia Inhibitory Factor (LIF) to activate STAT3 and with Interferon gamma (IFN-γ) to activate STAT1 signaling. In MCF-7 cells, LIF induced selective STAT3 tyrosine phosphorylation and IFN-γ induced selective STAT1 tyrosine phosphorylation. In MDA-MB-231 cells, however, each cytokine induced both STAT3 and STAT1 tyrosine phosphorylation.

[1] = tested on: STAT1-dependent transcription (ISRE reporter); assay: ISRE luciferase reporter in MCF-7 cells activated by IFN-γ; type: cell-based, human; conditions: IFN-γ-stimulated
From the text: (§2) To evaluate effects of inhibitors on cytokine-activated transcription, luciferase reporter vectors APRE and ISRE were employed (Takeda et al., J. Endocrinol. 159, 323-330 (1998); Ivanova et al., J. Mol. Biol. 340, 641-653 (2004)). APRE was activated in MCF-7 cells by LIF.

STAT1 = target: T2, STAT1 (Homo sapiens, UniProt P42224); assay: STAT1 tyrosine phosphorylation and expression in cytokine-treated breast cancer cells; type: cell-based; conditions: pretreatment 1 hour
T2 construct: endogenous in cells; host or cells: MCF-7 and MDA-MB-231
T2 sequence (P42224 1-750): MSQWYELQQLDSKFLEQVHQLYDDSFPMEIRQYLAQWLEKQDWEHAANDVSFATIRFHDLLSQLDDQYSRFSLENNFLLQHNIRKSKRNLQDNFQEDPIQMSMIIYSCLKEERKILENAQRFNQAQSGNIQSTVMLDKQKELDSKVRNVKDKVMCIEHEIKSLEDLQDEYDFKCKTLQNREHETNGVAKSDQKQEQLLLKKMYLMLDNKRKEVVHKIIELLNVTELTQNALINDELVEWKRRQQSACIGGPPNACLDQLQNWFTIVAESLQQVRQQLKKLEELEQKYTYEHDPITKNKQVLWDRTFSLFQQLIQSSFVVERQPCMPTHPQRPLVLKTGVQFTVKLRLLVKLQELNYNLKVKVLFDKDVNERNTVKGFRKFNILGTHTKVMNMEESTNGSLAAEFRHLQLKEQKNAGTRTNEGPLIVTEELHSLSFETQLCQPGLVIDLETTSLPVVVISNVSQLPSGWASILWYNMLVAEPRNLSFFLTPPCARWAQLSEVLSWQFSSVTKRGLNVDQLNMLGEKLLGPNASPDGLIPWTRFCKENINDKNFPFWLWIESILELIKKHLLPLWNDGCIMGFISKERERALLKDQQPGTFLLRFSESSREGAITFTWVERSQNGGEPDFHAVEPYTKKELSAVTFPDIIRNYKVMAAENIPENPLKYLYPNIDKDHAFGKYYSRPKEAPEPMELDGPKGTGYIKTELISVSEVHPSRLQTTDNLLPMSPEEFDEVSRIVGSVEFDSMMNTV
Procedure: as §1

[2] = tested on: STAT3-dependent transcription (APRE reporter); assay: APRE luciferase reporter in MCF-7 cells activated by LIF; type: cell-based, human; conditions: basal and LIF-stimulated
From the text: as §2

[3] = target: T3, STAT3 tagged with eGFP (eGFP-STAT3) (Homo sapiens, UniProt P40763); assay: FRET in living cells expressing eGFP-STAT3; type: binding; conditions: HEK293 cells stably expressing eGFP-STAT3, 5 μM, one hour
T3 construct: expressed in transfected cells; host or cells: HEK293
T3 sequence (P40763 whole entry): as the sequence (P40763 whole entry) above
Procedure: Fluorescence Resonance Energy Transfer (FRET) method was used to determine whether STAT3-HEL2A-2 (see Example 3) interacts with STAT3 in living cells. HEK293 cells stably expressing STAT3 tagged with eGFP on its N-terminus (eGFP-STAT3) were treated for one hour with 5 μM of STAT3-HEL2A-2 labeled with rhodamine. An additional cysteine residue was positioned at the C-terminus of penetratin to facilitate labeling. Excitation of eGFP (donor) was facilitated using a 488-nm light source, and the emission spectrum was detected. In the absence of energy transfer between eGFP and rhodamine, excitation of eGFP would lead to an emission peak at 520-540 nm, whereas energy transfer from eGFP to an adjacent rhodamine fluorochrome acceptor would cause an emission in the 560-600 nm range. […] The photobleaching of rhodamine restored the fluorescence of eGFP.
Cells expressing eGFP-STAT3, eGFP-STAT1, or eGFP were treated with rhodamine-labeled STAT3-HEL2A-2 (see Example 6). Excitation of eGFP was facilitated, and the emission spectrum detected, in accordance with the methods described in Example 6. FRET efficiency was calculated using equation 1-D0/D1, where D0 is fluorescence intensity of eGFP before rhodamine photobleaching and D1 is the intensity after rhodamine photobleaching.

[4] = MCF-7 and MDA-MB-231 cells treated with LIF or IFN-γ

Molecule	Activity, % of control (STAT3 signaling)	Cell growth, % of control (MCF7 breast cancer cells)	other results
LDTRYLEQLHKLYS (LDTRYLEQLHKLYS-penetratin) [Hel2B-Pen, penetratin fused to the C-terminus]	100 ± 9%	82 ± 6%	
CCCCCCCCCCCCCCCC(=O)N[C@H](CCCCN)C(=O)N[C@H](Cc1ccc(O)cc1)C(=O)N[C@H](CC(C)C)C(=O)N[C@H](CCCCN)C(=O)N[C@H](Cc1c[nH]cn1)C(=O)N[C@H](CC(C)C)C(=O)N[C@H](CCC(N)=O)C(=O)N[C@H](CCC(=O)O)C(=O)N[C@H](CC(C)C)C(=O)N[C@H](Cc1ccc(O)cc1)C(=O)N[C@H](CCCNC(=N)N)C(=O)N[C@@H](C(=O)N[C@H](CC(=O)O)C(N)=O)[C@H](C)O [St3-H2a-2a-Pa17] (Palmitoyl-[dK][dY][dL][dK][dH][dL][dQ][dE][dL][dY][dR][dT][dD]-NH2; C-terminus assumed)			IC50 (MCF7 breast cancer cells; read-out: IC50 (concentration causing 50% growth inhibition), 48 hours after exposure, Table 8): 1800 nM
LDTKYLEQLHDabLY (LDTKYLEQLH[Dab]LY; also: penetratin fused C-terminally) [Hel2K-Pen, penetratin fused to the C-terminus]		8 ± 2%	
DTRYLEQLHKLCyPheS (DTRYLEQLHKL[Phe(4-CN)]S; also: penetratin fused C-terminally) [Hel2C-Pen, CyPhe is 4-cyano phenylalanine; penetratin fused to the C-terminus]		38 ± 4%	
DTRYLEQLHDabLYS (DTRYLEQLH[Dab]LYS; also: penetratin fused C-terminally) [Hel2F-Pen, penetratin fused to the C-terminus]		60 ± 5%	
DTRYLQELHKLYS (DTRYLQELHKLYS-penetratin) [Hel2E-Pen, penetratin fused to the C-terminus]		46 ± 4%	
Ac-DTRYLEQLHALY (Ac-DTRYLEQLHALY-penetratin; also: penetratin fused C-terminally) [Hel2A-3-Pen, penetratin fused to the C-terminus]	89 ± 9%	93 ± 6%	
DSKFLEQVHKLY-penetratin [STAT1-Hel2A-2]			Effect on expression level of STAT3 protein (STAT3; MCF-7 and MDA-MB-231 cells): did not change; Effect on tyrosine phosphorylation of STAT3 (STAT3; [4]): did not affect; Effect on ISRE reporter activation [1]: prevented cytokine-stimulated reporter activation; Effect on expression level of STAT1 protein (STAT1; MCF-7 and MDA-MB-231 cells): did not change; Effect on tyrosine phosphorylation of STAT1 (STAT1; [4]): did not affect; Effect on APRE reporter expression [2]: inhibited both basal and stimulated expression
rhodamine-labeled STAT3-HEL2A-2: STAT3-HEL2A-2 labeled with rhodamine via an additional cysteine residue at the C-terminus of penetratin (LDTRYLEQLHKLYRQIKIWFPNRR[Nle]KWKKC(rhodamine); reading uncertain)			Quenching of the normal fluorescence of eGFP [3]: 90%
Ac-ATRYLEQLHKLY (Ac-ATRYLEQLHKLY-penetratin; also: penetratin fused C-terminally) [Hel2A-5-Pen, penetratin fused to the C-terminus]		85 ± 5%	
LDTRYLEQLHQLYS (LDTRYLEQLHQLYS-penetratin) [Hel2-Pen]	56 ± 5%	73 ± 5%	
LDTRYLEQLHDabLY (LDTRYLEQLH[Dab]LY; also: penetratin fused C-terminally) [Hel2H-Pen, penetratin fused to the C-terminus]	43 ± 4%	45 ± 4%	
DTRYLEQLHDabLY (DTRYLEQLH[Dab]LY; also: penetratin fused C-terminally) [Hel2I-Pen, penetratin fused to the C-terminus]	53 ± 6%	25 ± 4%	
DTRYLEQLHKLYS (DTRYLEQLHKLYS-penetratin) [Hel2A-Pen, penetratin fused to the C-terminus]	100 ± 9%	44 ± 5%	
Ac-DTRYLEQLHKLY (Ac-DTRYLEQLHKLY-penetratin; also: penetratin fused C-terminally) [Ac-Hel2A-2a-Pen, penetratin fused to the C-terminus]		45 ± 5%	
DTKYLEQLHKLYS (DTKYLEQLHKLYS-penetratin) [Hel2D-Pen, penetratin fused to the C-terminus]		42 ± 4%	
Ac-DTRYLEQLHELY (Ac-DTRYLEQLHELY-penetratin; also: penetratin fused C-terminally) [Hel2A-4-Pen, penetratin fused to the C-terminus]		91 ± 6%	
DTRYLEQLHKLY (DTRYLEQLHKLY-penetratin) [Hel2A-2a-Pen, penetratin fused to the C-terminus]		65 ± 5%	
